From US7312248B2, “Control of parasites in animals by the use of novel trifluoromethanesulfonanilide oxime ether derivatives” (Schering-Plough Animal Health Corporation, priority 2004, dated 2007) come the findings set out here.

For data set [1], the system named is Brown Dog Tick (Rhipicephalus sanguineus). Briefly: Rapid screening protocol for topical application on brown dog ticks. The format is in vivo. The conditions noted are these: 48 h; Laboratory 2 F data.
For data set [2] the test system is unchanged. Put plainly: Dose response protocol for topical application on brown dog ticks (LD50). The format is in vivo. The conditions noted are these: 24 h mortality.

As for `CC/C(=N\OCc1ccc(C(F)(F)F)cc1)c1cc(Cl)ccc1NS(=O)(=O)C(F)(F)F` [Compound 9], the “R. sanguineus Mortality (%) 48 h” value in data set [1] is listed as 95%. Moreover, the “R. sanguineus LD50” value in data set [2] came out at 2.7 μg/tick.
In the same order, the values of `CC/C(=N\OCc1ccc(Cl)cc1)c1cc(Cl)ccc1NS(=O)(=O)C(F)(F)F` [Compound 11, N-{4-chloro-2-[1-(4-chlorobenzyloxyimino)propyl]phenyl}trifluoromethanesulfonamide] are 97% and 2.5 μg/tick.
